Square brackets hold non-standard residues; d marks the D form. Peptide text beside a SMILES is read from it. pT = C[C@@H](OP(=O)(O)O)[C@H](N)C(=O)O; pS = N[C@@H](COP(=O)(O)O)C(=O)O
What was measured:
Assay type in all cases: binding
[1] = target: T1, wild-type aprataxin FHA domain (Homo sapiens, UniProt Q7Z2E3); test: ITC of wild-type aprataxin FHA domain with XRCC1 and XRCC4 phosphopeptides; details: 22 °C, 50 mM HEPES pH 7.5, 150 mM NaCl, 5 mM β-mercaptoethanol, peptide in syringe, XRCC1 peptides 1 mM into 100 μM protein, XRCC4 peptides 300 μM into 30 μM protein, single-site model, representative of triplicate
T1 construct: aprataxin residues 1–105; GST (pGEX-6P-1) (N, cleaved yes); made in house; host or cells: Escherichia coli BL21 (DE3)
T1 sequence (Q7Z2E3 15-119): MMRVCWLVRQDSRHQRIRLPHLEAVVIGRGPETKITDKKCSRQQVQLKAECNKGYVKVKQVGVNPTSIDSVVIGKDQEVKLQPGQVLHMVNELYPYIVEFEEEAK
Text: (§1) The genes for aprataxin residues 1–105 and APLF residues 1–106 were amplified using primer sets which incorporated 5′ BamHI and 3′ XhoI sites. PCR products and pGEX-6P-1 vector were digested with BamHI and XhoI and religated. All point mutations were generated using a QuickChange Site-Directed Mutagenesis Kit (Stratagene) following the manufacturer's recommended protocol.
(§2) For expression, the pGEX-6P-1/aprataxin-FHA constructs were transformed into Escherichia coli strain BL21 (DE3) and the pGEX-6P-1/APLF-FHA constructs transformed into the strain Rosetta2 (DE3). Cells were grown in LB at 37 °C to an A600 of 0.5, induced with 0.4 mM isopropyl 1-thio-β-D-galactopyranoside and incubated at 18 °C for a further 16 h before harvesting. Cells were lysed by sonication and clarified by centrifugation (20,000 × g × 30 min). The supernatant was applied to a glutathione-4B resin (Amersham) and cleaved from the resin with rhinovirus 3C protease. Proteins were purified further by gel-filtration chromatography on a Superdex 75 matrix in 20 mM Tris pH 7.5, 150 mM NaCl, 5 mM DTT. Selenomethionine-labelled APLF L91 M protein was expressed in Rosetta2 (DE3) cells cultured in SelenoMet base media and nutrients supplemented with seleno-methionine solution (Molecular Dimensions Ltd.) and purified as the wild-type protein.
(§3) Phosphopeptides based on the XRCC1 sequence 515-YAGSTDENTDSEEHQ-529 and the XRCC4 sequence 229-YDESTDEES-237 were synthesised with amidated C-termini to avoid potential end-effects of a free carboxy-terminus by Dr. W. Mawby (University of Bristol), purified by HPLC and characterised by mass spectrometry. FHA-phosphopeptide binding was quantified by isothermal titration calorimetry using a Microcal Omega VP-ITC calorimeter (MicroCal Inc., Northampton, MA). Protein was dialysed against ITC buffer (50 mM HEPES pH 7.5, 150 mM NaCl, 5 mM β-mercaptoethanol) and peptides were dissolved in the dialysis buffer. Experiments were carried out at 22 °C and involved 30 successive 10 μl injections of peptide solution into a sample cell containing protein solution. Titrations with XRCC1 peptides used peptide at 1 mM and protein at 100 μM and titrations with XRCC4 peptides used peptide at 300 μm and protein at 30 μM. Heats of dilution were subtracted and binding isotherms were plotted and analysed with MicroCal origin version 7.0, assuming a single-site binding model.

[2] = target: T2, wild-type APLF FHA domain (Homo sapiens, UniProt Q8IW19); test: ITC of wild-type APLF FHA domain with XRCC1 and XRCC4 phosphopeptides; details: 22 °C, 50 mM HEPES pH 7.5, 150 mM NaCl, 5 mM β-mercaptoethanol, peptide in syringe, XRCC1 peptides 1 mM into 100 μM protein, XRCC4 peptides 300 μM into 30 μM protein, single-site model, representative of triplicate
T2 construct: APLF residues 1–106; GST (pGEX-6P-1) (N, cleaved yes); made in house; host or cells: Escherichia coli Rosetta2 (DE3)
T2 sequence (Q8IW19 1-106): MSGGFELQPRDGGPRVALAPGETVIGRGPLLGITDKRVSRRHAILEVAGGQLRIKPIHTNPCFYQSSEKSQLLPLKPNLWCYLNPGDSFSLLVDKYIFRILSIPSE
Text: as §1
For expression, the pGEX-6P-1/aprataxin-FHA constructs were transformed into Escherichia coli strain BL21 (DE3) and the pGEX-6P-1/APLF-FHA constructs transformed into the strain Rosetta2 (DE3). Cells were grown in LB at 37 °C to an A600 of 0.5, induced with 0.4 mM isopropyl 1-thio-β-D-galactopyranoside and incubated at 18 °C for a further 16 h before harvesting. […]
Phosphopeptides based on the XRCC1 sequence 515-YAGSTDENTDSEEHQ-529 and the XRCC4 sequence 229-YDESTDEES-237 were synthesised with amidated C-termini to avoid potential end-effects of a free carboxy-terminus by Dr. W. Mawby (University of Bristol), purified by HPLC and characterised by mass spectrometry. FHA-phosphopeptide binding was quantified by isothermal titration calorimetry using a Microcal Omega VP-ITC calorimeter (MicroCal Inc., Northampton, MA). […] Heats of dilution were subtracted and binding isotherms were plotted and analysed with MicroCal origin version 7.0, assuming a single-site binding model.

[3] = target: T3, R42A Mutant of aprataxin FHA domain (Homo sapiens, UniProt Q7Z2E3, R56A); test: ITC of R42A mutant of aprataxin FHA domain with XRCC1 and XRCC4 phosphopeptides; details: 22 °C, 50 mM HEPES pH 7.5, 150 mM NaCl, 5 mM β-mercaptoethanol, single-site model
T3 construct: aprataxin residues 1–105; GST (pGEX-6P-1) (N, cleaved yes); made in house; host or cells: Escherichia coli BL21 (DE3)
T3 sequence (Q7Z2E3 15-119 R56A): as the sequence (Q7Z2E3 15-119) above, with R42A counted along it
Text: as §1, §2, §3

[4] = target: T4, K38A Mutant of aprataxin FHA domain (Homo sapiens, UniProt Q7Z2E3, K52A); test: ITC of K38A mutant of aprataxin FHA domain with XRCC1 and XRCC4 phosphopeptides; details: 22 °C, 50 mM HEPES pH 7.5, 150 mM NaCl, 5 mM β-mercaptoethanol, single-site model
T4 construct: aprataxin residues 1–105; GST (pGEX-6P-1) (N, cleaved yes); made in house; host or cells: Escherichia coli BL21 (DE3)
T4 sequence (Q7Z2E3 15-119 K52A): as the sequence (Q7Z2E3 15-119) above, with K38A counted along it
Text: as §1, §2, §3

| Kd [2] [µM] | SMILES | Kd [1] [µM] | Kd [3] [µM] | Kd [4] [µM] |
| --- | --- | --- | --- | --- |
| 11 ± 0.3 | C[C@H](NC(=O)[C@@H](N)Cc1ccc(O)cc1)C(=O)NCC(=O)N[C@@H](COP(=O)(O)O)C(=O)N[C@H](C(=O)N[C@@H](CC(=O)O)C(=O)N[C@@H](CCC(=O)O)C(=O)N[C@@H](CC(N)=O)C(=O)N[C@H](C(=O)N[C@@H](CC(=O)O)C(=O)N[C@@H](COP(=O)(O)O)C(=O)N[C@@H](CCC(=O)O)C(=O)N[C@@H](CCC(=O)O)C(=O)N[C@@H](Cc1c[nH]cn1)C(=O)N[C@@H](CCC(N)=O)C(N)=O)[C@@H](C)OP(=O)(O)O)[C@@H](C)OP(=O)(O)O [YAGpSpTDENpTDpSEEHQ] (H-YAG[pS][pT]DEN[pT]D[pS]EEHQ-NH2) | 0.87 ± 0.05 | – | – |
| – | C[C@@H](OP(=O)(O)O)[C@H](NC(=O)[C@H](CO)NC(=O)[C@H](CCC(=O)O)NC(=O)[C@H](CC(=O)O)NC(=O)[C@@H](N)Cc1ccc(O)cc1)C(=O)N[C@@H](CC(=O)O)C(=O)N[C@@H](CCC(=O)O)C(=O)N[C@@H](CCC(=O)O)C(=O)N[C@@H](CO)C(N)=O [YDESpTDEES] (HELM PEPTIDE1{Y.D.E.S.[C[C@@H](OP(=O)(O)O)[C@H](N[*:1])C(=O)[*:2]].D.E.E.S.[am]}$$$$V2.0) | 2.1 ± 0.08 | ≥ 100 | 6.8 ± 0.5 |
| – | C[C@@H](OP(=O)(O)O)[C@H](NC(=O)[C@H](COP(=O)(O)O)NC(=O)[C@H](CCC(=O)O)NC(=O)[C@H](CC(=O)O)NC(=O)[C@@H](N)Cc1ccc(O)cc1)C(=O)N[C@@H](CC(=O)O)C(=O)N[C@@H](CCC(=O)O)C(=O)N[C@@H](CCC(=O)O)C(=O)N[C@@H](CO)C(N)=O [YDEpSpTDEES] (HELM PEPTIDE1{Y.D.E.[O=C([C@H](COP(=O)(O)O)N[*:1])[*:2]].[C[C@@H](OP(=O)(O)O)[C@H](N[*:1])C(=O)[*:2]].D.E.E.S.[am]}$$$$V2.0) | 0.25 ± 0.02 | ≥ 100 | 1.9 ± 0.06 |
| – | C[C@@H](OP(=O)(O)O)[C@H](NC(=O)[C@H](COP(=O)(O)O)NC(=O)[C@H](CCC(=O)O)NC(=O)[C@H](CC(=O)O)NC(=O)[C@@H](N)Cc1ccc(O)cc1)C(=O)N[C@@H](CC(=O)O)C(=O)N[C@@H](CCC(=O)O)C(=O)N[C@@H](CCC(=O)O)C(=O)N[C@@H](COP(=O)(O)O)C(N)=O [YDEpSpTDEEpS] (H-YDE[pS][pT]DEE[pS]-NH2) | 0.14 ± 0.01 | ≥ 100 | 1.3 ± 0.05 |
